Experimental data reported in US9221810B2, “Substituted bicyclic aromatic compounds as S-nitrosoglutathione reductase inhibitors” (Nivalis Therapeutics, Inc., priority 2010, dated 2015).

Columns and labels:
[1] = molecular target: T1, GSNOR (Homo sapiens, UniProt P11766); assay: GSNOR assay (inhibition of GSNOR activity, NADH absorbance at 340 nm); assay type: biochemical; conditions: printed as 'about <'; 0.240 mM GSNO, 0.300 mM NADH, pH 7.4, 25° C.
T1 construct: made in house; host or cells: E. coli (arabinose-induced)
Method: GSNOR expression and purification is described in Biochemistry 2000, 39, 10720-10729.
GSNOR Fermentation: Pre-cultures were grown from stabs of a GSNOR glycerol stock in 2XYT media containing 100 ug/ml ampicillin after an overnight incubation at 37° C. Cells were then added to fresh 2XYT (4 L) containing ampicillin and grown to an OD (A600) of 0.6-0.9 at 37° C. before induction. GSNOR expression was induced with 0.1% arabinose in an overnight incubation at 20° C.
GSNOR Purification: E. coli cell paste was lysed by nitrogen cavitation and the clarified lysate purified by Ni affinity chromatography on an AKTA FPLC (Amersham Pharmacia). The column was eluted in 20 mM Tris pH 8.0/250 mM NaCl with a 0-500 mM imidazole gradient. Eluted GSNOR fractions containing the Smt-GSNOR fusion were digested overnight with Ulp-1 at 4° C. to remove the affinity tag then re-run on the Ni column under the same conditions. GSNOR was recovered in the flowthrough fraction and for crystallography is further purified by Q-Sepharose and Heparin flowthrough chromatography in 20 mM Tris pH 8.0, 1 mM DTT, 10 uM ZnSO4.
GSNOR Assay: GSNO and enzyme/NADH Solutions are made up fresh each day. The solutions are filtered and allowed to warm to room temperature. GSNO solution: 100 mM NaPO4 (pH 7.4), 0.480 mM GSNO. 396 μL of GSNO Solution is added to a cuvette followed by 8 μL of test compound in DMSO (or DMSO only for full reaction control) and mixed with the pipette tip. Compounds to be tested are made up at a stock concentration of 10 mM in 100% DMSO. 2 fold serial dilutions are done in 100% DMSO. 8 μL of each dilution are added to an assay so that the final concentration of DMSO in the assay is 1%. The concentrations of compounds tested range from 100 to 0.003 μM. Enzyme/NADH solution: 100 mM NaPO4 (pH 7.4), 0.600 mM NADH, 1.0 μg/mL GSNO Reductase. 396 μL of the Enzyme/NADH solution is added to the cuvette to start the reaction. The cuvette is placed in the Cary 3E UV/Visible Spectrophotometer and the change in 340 nm absorbance/min at 25° C. is recorded for 3 minutes. The assays are done in triplicate for each compound concentration. IC50's for each compound are calculated using the standard curve analysis in the Enzyme Kinetics Module of SigmaPlot.
Final assay conditions: 100 mM NaPO4, pH 7.4, 0.240 mM GSNO, 0.300 mM NADH, 0.5 μg/mL GSNO Reductase, and 1% DMSO. Final volume: 800 μL/cuvette.

[2] = system: acute dextran sodium sulfate (DSS)-induced IBD; assay: Acute prophylactic model of DSS-induced IBD in mice; assay type: in vivo, male C57Bl/6 mice; conditions: oral 10 mg/kg/day for 10 consecutive days, prophylactic
Source text: Acute and chronic models of dextran sodium sulfate (DSS)-induced IBD in mice were used to explore efficacy of GSNORi against this disease. Acute and chronic DSS-induced IBD are widely used and well characterized models that induce pathological changes in the colon similar to those observed in the human disease. In these models and in human disease, epithelial cells within the crypts of the colon are disrupted, leading to dysfunction of the epithelial barrier and the ensuing tissue inflammation, edema, and ulceration. GSNORi therapy may benefit IBD by restoring s-nitrosoglutathione (GSNO) levels, and thus prevent or reverse the epithelial barrier dysfunction. Experimental IBD was induced by administration of DSS in the drinking water of male C57Bl/6 mice (N=8 to 10 mice per group) for 6 consecutive days. GSNORi was dosed orally at doses of 0.1 to 10 mg/kg/day for 10 days starting two days prior to and continuing two days post DSS exposure. Two days post DSS exposure, the effect of GSNORi was assessed in a blinded fashion via endoscopy and histopathology using a five point scale ranging from a score=0 (normal tissue) through a score=4 (ulcerative tissue damage and marked pathological changes). Levels of circulating cytokines involved in inflammatory pathways were also assessed. The effect of GSNORi was compared to vehicle treated controls. The corticosteroid, prednisolone, was used as the positive control in this study and was administered daily at 3 mg/kg/day via oral dosing. Naïve mice (N=5) were also assessed as a normal tissue control.

[3] = Mouse pharmacokinetic (PK) study; assay type: in vivo, male BALB/c mice; conditions: male, BALB/c, plasma, po, 10 mg/kg, IV 2 mg/kg, read-out: oral bioavailability (% F)
Source text: The mouse was used to determine the pharmacokinetics of compounds of the invention. This species is widely used to assess the bioavailability of compounds by administering both oral (PO) and intravenous (IV) test articles. Efficacy of the compounds of the invention was compared by assessing plasma exposure in male BALB/c mice either via IV or PO administration at the times of peak activity.
Compounds of the invention were reconstituted in a phosphate buffered saline (PBS)/10% Solutol (HS 15) clear solution resulting in a concentration of 0.2 mg/mL and administered to mice (2 mg/kg) as a single IV dose. Animals were dosed via the lateral tail vein. Blood samples were collected at designated time points (0.083, 0.25, 0.5, 1, 2, 4, 8, 16, 24 hours) by cardiac puncture under isoflurane anesthesia (up to 1 mL blood per animal). The blood was collected into tubes containing Li-Heparin. The blood samples were kept on ice until centrifugation within approximately 30 minutes of collection. The plasma was transferred into labeled polypropylene tubes and frozen at −70° C. until analyzed by LC/MS/MS.
The compounds of the invention were reconstituted in 40% Propylene Glycol/40% Propylene Carbonate/20% of a 5% Sucrose clear solution resulting in a concentration of 2 mg/mL and administered to mice (10 mg/kg) as a single oral dose via gavage. Blood samples were collected at 0.25, 0.5, 1, 2, 4, 8, 12, 16, 20 and 24 hours post dose by cardiac puncture under isoflurane anesthesia. The blood was collected in tubes containing Li-Heparin. […] The plasma was transferred into labeled polypropylene tubes and frozen at −70° C. until analyzed by LC/MS/MS.
Plasma samples at each timepoint were analyzed using a LC-MS/MS with a lower limit of quantification (LLOQ) of 1 ng/mL. Plasma was analyzed to determine the amount of the compound of the invention in each sample and regression curves generated for each compounds of the invention in the relevant matrixes. […]
In addition to the above PK parameters, bioavailability (% F) was calculated.

[4] = system: cigarette smoke-induced COPD (subchronic 11 day); assay: Subchronic (11 day) cigarette smoke exposure COPD model; assay type: in vivo, female C57Bl/6 mice; conditions: subchronic 11 day model; roflumilast 5 mg/kg/day
Method: The efficacy of GSNOR inhibitors was assessed in a mouse model of chronic obstructive pulmonary disease (COPD) induced by short duration (4 days or 11 days) of exposure to cigarette smoke. Infiltration of inflammatory cells into the bronchoalveolar lavage fluid (BALF) and BALF levels of chemokines involved in inflammation and tissue turnover/repair were measured to assess the influences of GSNOR inhibitors on some of the early events associated with the initiation and progression of COPD.
Efficacy of GSNOR inhibitors against COPD was explored using acute (4 day) and subchronic (11 day) models of cigarette smoke-induced COPD in mice. […] In animal models, changes in lung pathology are only evident after extended (several months) duration of exposure to cigarette smoke, thus making chronic models prohibitive as effective screening tools. More recently, models exploring inflammatory responses after short duration (2 weeks or less) of smoke exposure in mice have been utilized as tools for screening efficacy and mechanisms of action of novel therapeutics against COPD. The key roles of inflammation in the initiation and progression of COPD, make these short duration models relevant for initial tests of efficacy of novel therapeutics.
Subchronic (11 Day) Smoke Exposure Model: Female C57Bl/6 mice (N=10 per group) were exposed to cigarette smoke generated from Marlboro 100 cigarettes without filters. Exposure times were 25 min. on study day 1, 35 min. on study day 2, and 45 min. on study days 3 to 11. GSNOR inhibitors were administered one hour prior to smoke exposure on each day. GSNOR inhibitors were dosed orally at 1 to 10 mg/kg/day for 11 days. The effects of GSNOR inhibitors were assessed by quantitating the number of total cells, and leukocytes differentials in the BALF via light microscopy at 24 h after the last exposure. The effect of GSNOR inhibitors were compared to vehicle treated controls and expressed as percent inhibition of the cigarette smoke induced increases in BALF cell numbers. Roflumilast was used as the positive control for the study and was dosed at 5 mg/kg/day. A group of naïve mice (N=10) was exposed to air and dosed with vehicle as a negative control for the study.

T1 sequence (P11766 whole entry): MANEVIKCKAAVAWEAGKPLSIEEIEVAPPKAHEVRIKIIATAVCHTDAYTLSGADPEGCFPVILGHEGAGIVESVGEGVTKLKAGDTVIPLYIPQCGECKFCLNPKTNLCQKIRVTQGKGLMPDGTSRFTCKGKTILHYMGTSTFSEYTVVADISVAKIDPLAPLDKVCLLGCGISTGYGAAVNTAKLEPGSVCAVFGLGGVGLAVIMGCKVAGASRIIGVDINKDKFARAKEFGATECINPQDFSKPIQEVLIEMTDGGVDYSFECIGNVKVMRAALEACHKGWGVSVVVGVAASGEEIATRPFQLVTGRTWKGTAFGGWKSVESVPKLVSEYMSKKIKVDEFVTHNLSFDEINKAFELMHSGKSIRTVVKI

Compound	IC50 [1] [nM]	further results
O=C(O)c1ccc(-c2cc3ccc(O)cc3cn2)c(F)c1 [Example 65, 3-fluoro-4-(7-hydroxyisoquinolin-3-yl)benzoic acid]	< 100	
O=C(O)[C@H]1CC[C@H](c2nc3ccc(O)cc3cc2C(F)(F)F)CC1 [Example 43, (1r,4r)-4-(6-hydroxy-3-(trifluoromethyl)quinolin-2-yl)cyclohexanecarboxylic acid]	< 100	
O=C(O)c1ccc(-c2nc3ccc(O)cc3cc2Cl)cc1 [Example 19, 4-(3-chloro-6-hydroxyquinolin-2-yl)benzoic acid]		decrease of percent of mice with severe colon injury scores via endoscopy [2]: 31 % of vehicle control; bioavailability [3]: > 9%
O=C(O)c1ccc(-c2ncc3cc(O)ccc3n2)cc1 [Example 45, 4-(6-hydroxyquinazolin-2-yl)benzoic acid]	< 100	
O=C(O)c1ccc(-c2nc3ccc(O)cc3cc2Cl)c(F)c1 [Example 28, 4-(3-chloro-6-hydroxyquinolin-2-yl)-3-fluorobenzoic acid]		bioavailability [3]: > 9%
O=C(O)c1ccc(-c2ccc3cc(O)ccc3n2)c(F)c1 [Example 13, 3-fluoro-4-(6-hydroxyquinolin-2-yl)benzoic acid]		effects compared to roflumilast (positive control) [4]: comparable to those of roflumilast
O=C(O)c1ccc(-c2ccc3cc(O)ccc3n2)c(C(F)(F)F)c1 [Example 30, 4-(6-hydroxyquinolin-2-yl)-3-(trifluoromethyl)benzoic acid]	< 100	
O=C(O)[C@H]1CC[C@H](c2ccc3cc(O)ccc3n2)CC1 [Example 6, (1r,4r)-4-(6-hydroxyquinolin-2-yl)cyclohexanecarboxylic acid]	< 500	
O=C(O)c1ccc(-c2cc(F)c3cc(O)ccc3n2)c(Cl)c1 [Example 37, 3-chloro-4-(4-fluoro-6-hydroxyquinolin-2-yl)benzoic acid]	< 100	
Cc1cc(C(=O)O)ccc1-c1ccc2cc(O)ccc2n1 [Example 27, 4-(6-hydroxyquinolin-2-yl)-3-methylbenzoic acid]		effects compared to roflumilast (positive control) [4]: comparable to those of roflumilast
O=C(O)c1ccc(-c2nc3ccc(O)cc3cc2C(F)(F)F)cc1 [Example 31, 4-(6-hydroxy-3-(trifluoromethyl)quinolin-2-yl)benzoic acid]	< 100	
